“Also recorded” adds a separate entry of the source.
Columns and labels:
SLAMF 1 = test: Palmitic acid treatment of human hepatocytes in culture, SLAMF1 protein by western blot and immunofluorescence; format: cell-based; settings: for SLAMF1 level normalized to Tubulin, relative to control: western blot, n=3; for SLAMF 1 protein levels by immunofluorescence staining: palmitic acid vs vehicle
Protocol: Hepatocytes were treated with two different doses of palmitic acid (0.4 and 0.8 mM). […] The 0.4 mM dose has a SLAMF1 level of 2.3 times the control level. The 0.8 mM dose has a SLAMF1 level of 5.8 times the control level. […] Representative immunofluorescence staining of hepatocytes treated with vehicle (left panel) or palmitic acid (right panel). Caveolin antibody (red, to label the membrane of the cells), SLAMF 1 antibody (green) and the nuclear marker DAPI (blue). Protein levels of SLAMF 1 are elevated in response to palmitic acid (right panel). The data represents n=4 samples per group. All samples were a courtesy of Pathology Department. All pictures were acquired on a Leica TCS SP5 Spectral Confocal Microscope equipped with a ×40 (oil) objective.

HepG2 cells = test: Palmitic acid lipotoxicity in HepG2 cells (MTT, lactate dehydrogenase, AnV cytometry, cleaved caspase 3 p17 western blot); format: cell-based, human; settings: PA 24 h
SLAMF1 = SLAMF1 expression in PA treated HepG2 cells (immunocytochemistry, Western blot, q-PCR, conditioned medium); format: cell-based, human; settings: for SLAMF1 mRNA (q-PCR) / SLAMF1 protein (immunocytochemistry, Western blot): HepG2 cells, PA 24 h
Description: FIGS. 7A-7C show SLAMF1 increases in PA treated HepG2 cells.
Non-alcoholic fatty liver disease (NAFLD) is one of the most common forms of chronic liver disease. NAFLD's initial phase involves hepatic steatosis (triglyceride accumulation in hepatocytes). NAFLD can rapidly progress to non-alcoholic steatohepatitis (NASH). NASH is characterized by increased oxidative stress, lipid peroxidation, inflammation, mitochondria dysfunction, and hepatocyte death and fibrosis. If untreated, NASH leads to cirrhosis, and in some cases, hepatocellular carcinoma. […] Therefore, it is critical to understand the mechanisms responsible for NAFLD progression to NASH to develop efficient therapies and find disease progression biomarkers. Signaling lymphocytic activation molecule 1 (SLAMF1) protein is a self-ligand receptor involved in regulating the immune response to viruses and cancer. In the present disclosure, the inventors discovered that hepatocytes from NASH liver samples from humans and mice express high levels of SLAMF1. To confirm these findings, the inventors used palmitic acid-treated HepG2 hepatocytes as an “in vitro” model of NASH. […] Based on the inventors' experimental results, SLAMF1 may be used as both a therapeutic and a diagnostic target (including soluble form) for NAFLD and NASH.
Referring to FIGS. 6A-8E, the involvement of SLAMF1 in the progression of NASH was explored in human hepatocarcinoma cells HepG2.

For `CCCCCCCCCCCCCCCC(=O)O` [palmitic acid], the “SLAMF1 level normalized to Tubulin, relative to control” value (SLAMF 1; 0.4 mM palmitic acid) was 2.3 times the control level, the “SLAMF1 level normalized to Tubulin, relative to control” value (SLAMF 1; 0.8 mM palmitic acid) was 5.8 times the control level and the “SLAMF 1 protein levels” value (SLAMF 1; 0.4 and 0.8 mM palmitic acid) was “dose dependent increase”. For the same molecule, the “SLAMF 1 protein levels by immunofluorescence staining” value (SLAMF 1; n=4) was “significant increase in SLAMF1 levels”, the “SLAMF 1 protein levels by immunofluorescence staining” value (SLAMF 1; n=4, listed as Palmitic acid) was “elevated” and the “apoptosis (AnV by cytometry, cleaved caspase 3 p17 by western blot)” value (HepG2 cells) was “induced apoptosis”. The “cell viability (MTT)” value (HepG2 cells) was “reduces cell viability”, the “cytotoxicity (Lactate dehydrogenase activity in conditioned medium)” value (HepG2 cells) was “increases cytotoxicity” and the “SLAMF1 mRNA (q-PCR)” value (SLAMF1) was “significant increases”. For the same molecule, the “SLAMF1 protein (immunocytochemistry, Western blot)” value (SLAMF1) was “significant increases”, the “SLAMF1 mRNA (q-PCR)” value (SLAMF1; listed as PA) was “increases” and the “SLAMF1 protein (immunocytochemistry, Western blot)” value (SLAMF1; listed as PA) was “increases SLAMF1 protein”. For the same molecule, the “SLAMF1 in culture/conditioned medium” value (SLAMF1; palmitic acid-treated hepatocytes) was “secrete SLAMF1 in the culture medium; also recorded: increases SLAMF1 both in cells and conditioned medium”.

Source: patent publication US20240077498A1, “METHOD OF DIAGNOSING AND TREATING NONALCOHOLIC FATTY LIVER DISEASE AND NONALCOHOLIC STEATOHEPATITIS” (Board of Supervisors of Louisiana State University and …, priority 2020, published 2024)
